We go through 16 molecules from patent US20030229082A1, “Inhibition of RNA function” (The Regents of the University of California, priority 2002, published 2003).

Read-outs that look alike come from different tables or passages of the source.

The test system of series [1] is Ribosomal A-site RNA. Nature of the series: Saturation transfer difference (STD) NMR binding experiment. To be noted: for STD signals @ 0.4-0.6 mM drug: Ribosomal A-site RNA.
The subject of series [2] is HIV-1 TAR RNA. The series is described as above.
Series [3] relates to Polio virus loop B RNA. In kind it is binding.
Series [4] concerns DLS SL1 CA-loop RNA (dimer linkage site stem-loop 1). In words: Saturation transfer difference (STD) NMR binding experiment. Details: species or system HIV-1.
For series [5], the system named is CVB3 loop D RNA. Described as above. Details: species or system coxsackievirus B3.
Series [6] has as its system Ribosomal A-site RNA. Nature of the series: NMR line broadening of ligand signals. It counts as binding.
For series [7], the system named is HIV-1 TAR RNA. Nature of the series: NMR line broadening of ligand signals. It counts as binding.
In series [8] the test system is Polio virus loop B RNA. It counts as binding. The source holds these as a separate data set.
In series [9] the test system is DLS SL1 CA-loop RNA (dimer linkage site stem-loop 1). In words: NMR line broadening of ligand signals. It counts as binding, HIV-1.
Series [10] deals with CVB3 loop D RNA. In words: NMR line broadening of ligand signals. In kind it is binding, coxsackievirus B3.
In series [11] the test system is Ribosomal A-site RNA. In words: TOCSY/NOESY NMR chemical shift mapping. In kind it is binding.
Series [12] has as its system HIV-1 TAR RNA. In words: TOCSY/NOESY NMR, structure of the acetylpromazine-TAR complex. It counts as binding. The protocol:
Five different samples of the 31-nucleotide TAR were prepared: unlabeled, uniformly ^13C,^15N-labeled, type-specifically ^13C,^15N-labeled at G, A or C residues, respectively. All samples were prepared by in vitro transcription using T7 RNA polymerase and a synthetic DNA template and purified as described in Du, et al., Biochemistry 35, 4187 (1996). Acetylpromazine was purchased from Research Diagnostics Inc. Final sample conditions were 1-2 mM RNA in 10 mM sodium phosphate buffer (pH 6.5), 20 mM sodium chloride. Acetylpromazine was added in about two-fold excess over RNA.
The solution structure of the acetylpromazine-TAR complex was determined using a protocol very similar to that previously described by Schmitz, U., et al, (1999) Structure of the phylogenetically most conserved domain of SRP RNA, RNA 5, 1419-1429.
All NMR experiments were performed on Varian Inova 600 MHz spectrometers. Spectra were processed with NMRpipe and analyzed with SPARKY. Homonuclear 2D NOESY spectra in H2O were collected at 10° C. using the SSNOESY pulse sequence.
Due to the large number of intermolecular NOEs, 51, between acetylpromazine and TAR, binding of acetylpromazine to the 5′ bulge is very well defined.
The […] of acetylpromazine inserts between base pairs G26-C39 and A22-U40, preventing continuous stacking of the lower and upper stems as observed in structures induced by argininamide or Tat-peptide. However, another set of base-stacking interactions is created. U23 continues stacking on A22 in the fashion of an A-helix. This is evident by the NOEs from U23 H6 to A22 H2′ and H3′, and from U23 H1′ to A22 H2. Benzene ring II of acetylpromazine is stacked on U40. Stacking of U23 on A22 and benzene ring II on U40 arranges the U23 base and benzene ring II such that they look like an extra base pair continuing helical stacking on the A22-U40 base pair. This “pseudo base-pair” may contribute to the creation of a deeper minor groove (compared to the standard A-helix) to accommodate the aliphatic moiety of acetylpromazine. […]

Series [13] concerns Polio virus loop B RNA. In kind it is binding. To be noted: first part of cell TOCSY/NOESY.
Series [14] relates to DLS SL1 CA-loop RNA (dimer linkage site stem-loop 1). Nature of the series: TOCSY/NOESY NMR chemical shift mapping. It counts as binding, HIV-1.
The subject of series [15] is Tat-TAR interaction (TAR with hybrid CycT1-Tat protein). In words: Electrophoretic mobility shift assay (EMSA, gel shift). In kind it is binding, HIV-1. Particulars: for Gel Shift Assay: HIV-1 TAR; for prevention of the binding between Tat and TAR (EMSA): concentrations between 0.1 and 1 μM, hybrid CycT1-Tat protein and TAR each at 0.1 μM; for binding to the TAR region: in vitro. The text has this:
RNA Binding Assays In vitro (Electrophoretic Mobility Shift Assay; EMSA)
EMSA is an effective method for determining whether TAR forms a complex with Tat and human cyclin T1. n the presence of TAR, containing the 5′ bulge and central loop, and these proteins, a lower mobility complex was observed on polyacrylamide gels. The lack of higher order complex formation signifies that a compound can block this RNA-protein interaction. […] These phenothiazines are used clinically as antipsychotic, sedative and antiemetic agents.

In series [16] the target is A-site RNA. In words: STD NMR competition experiment with paromomycin. To be noted: calculated from IC50 of the STD competition with paromomycin by Cheng and Prusoff correction; read-out: KD for the interaction with A-site RNA. It counts as binding.
The subject of series [17] is RNA targets (ribosomal A-site, polio virus, DLS SL1, CVB3). It counts as binding. Particulars: specific tertiary RNA motifs, loops and bulges.
The target in series [18] is A-site RNA. Particulars: value stated for the competitor; read-out: KD of the high affinity drug (competitor) for A-site RNA; cited from earlier work.
Another series relates to HeLa cells. To be noted: human, 3 days.
For series [19], the system named is Tat transactivation via TAR. Nature of the series: Chloramphenicol acetyl transferase (CAT) assay in HeLa cells, HIV-1 LTR and Tat. Particulars: concentrations between 5 and 20 μM, dose-dependent.

In the case of `CC(=O)c1ccc2c(c1)N(CCCN(C)C)c1ccccc1S2` [(1), 10-[3-(dimethylamino)-propyl)phenothiazin-2-yl methyl ketone], the “STD signals @ 0.4-0.6 mM drug” value (with Ribosomal A-site RNA [1]; in the series with HIV-1 TAR RNA [2]; with Polio virus loop B RNA [3]; in series [4]; with CVB3 loop D RNA [5]) was “yes” throughout. The Line broadening entry (with Ribosomal A-site RNA [6]; with HIV-1 TAR RNA [7]; in the series on Polio virus loop B RNA [8]; in series [9]; with CVB3 loop D RNA [10]) was “yes” in each case. The NOESY data entry in the series with Ribosomal A-site RNA [11] and in the series with HIV-1 TAR RNA [12] (second part of cell TOCSY/NOESY) was “yes/yes” throughout. The TOCSY data result in the series with Ribosomal A-site RNA [11] was “yes/yes”; in the series on HIV-1 TAR RNA [12] (first part of cell TOCSY/NOESY), “yes/yes”; with Polio virus loop B RNA [13], “yes/no data”; in series [14] it was “yes/no data”. In addition, in the series with HIV-1 TAR RNA [12] (5′ bulge), the “binding site on TAR in solution (NMR-derived structural model)” value is recorded as “binds to the 5′ bulge of TAR”. Besides, the “Gel Shift Assay” value in series [15] was “positive”. Further, the “inhibition of the interaction of TAR and Tat” value in series [15] (compound at 100 nM, TAR and Tat both at 100 nM) is given as “completely inhibited”. In series [15], the “prevention of the binding between Tat and TAR (EMSA)” value (from here on “prevention”) is “prevent completely”. The “binding to the TAR region” value in series [15] is reported as “bind”. In addition, at A-site RNA [16], the Kd is about 10 µM. In addition, the “binding to RNA motifs by chemical shift mapping (TOCSY)” value in series [17] was “binds to specific tertiary RNA motifs such as loops and bulges”.

For the molecule `CN(C)CCCN1c2ccccc2Sc2ccccc21` [(2)], the “STD signals @ 0.4-0.6 mM drug” value in the series on Ribosomal A-site RNA [1] was “yes”. Moreover, the Line broadening entry in the series with Ribosomal A-site RNA [6] is on record as “yes”. Besides, the “Gel Shift Assay” value in series [15] is recorded as “positive”.

`CN(C)CCCN1c2ccccc2Sc2ccccc21` [(3)]: the “STD signals @ 0.4-0.6 mM drug” value in the series on Ribosomal A-site RNA [1] is listed as “no”. Besides, the Line broadening entry in the series on Ribosomal A-site RNA [6] is recorded as “yes”. In addition, the “Gel Shift Assay” value in series [15] was “negative”.

With `CN(C)CCCN1c2ccccc2Sc2ccccc21` [(4)], in the series with Ribosomal A-site RNA [1], the “STD signals @ 0.4-0.6 mM drug” value is recorded as “yes”. Moreover, the Line broadening entry with Ribosomal A-site RNA [6] is “yes”. Besides, the “Gel Shift Assay” value in series [15] is given as “positive”.

Consider `CN(C)CCCN1c2ccccc2Sc2ccccc21` [(5)], for which the “STD signals @ 0.4-0.6 mM drug” value in the series with Ribosomal A-site RNA [1] is listed as “yes”. Moreover, in the series with Ribosomal A-site RNA [6], the Line broadening result is given as “yes”. For the same molecule, the “Gel Shift Assay” value in series [15] was “negative”.

On to `CN(C)CCCN1c2ccccc2Sc2ccccc21` [(6)], for which the “STD signals @ 0.4-0.6 mM drug” value in the series on Ribosomal A-site RNA [1] was “no”. In addition, the Line broadening result is “little” in the series with Ribosomal A-site RNA [6] and “yes” in the series on HIV-1 TAR RNA [7]. Further, in series [15], the “Gel Shift Assay” value is recorded as “positive”.

Turning to `OCCNCCCN1c2ccccc2Sc2ccc(Cl)cc21` [(7)], the “STD signals @ 0.4-0.6 mM drug” value in the series with HIV-1 TAR RNA [2] is “yes”. Besides, the Line broadening result with HIV-1 TAR RNA [7] is listed as “yes”.

Regarding `CCCCNCCCN1c2ccccc2Sc2ccc(Cl)cc21` [(8)], the “STD signals @ 0.4-0.6 mM drug” value in the series with HIV-1 TAR RNA [2] is “yes”. Moreover, the Line broadening result in the series on HIV-1 TAR RNA [7] is on record as “yes”.

On to `Clc1ccc2c(c1)N(CCCN1CCCCC1)c1ccccc1S2` [(9)], for which the “STD signals @ 0.4-0.6 mM drug” value with HIV-1 TAR RNA [2] is “yes”. The Line broadening entry with HIV-1 TAR RNA [7] is given as “little”.

Take `Clc1ccc2c(c1)N(CCCNCc1ccccc1)c1ccccc1S2` [(10)]: the “STD signals @ 0.4-0.6 mM drug” value in the series with HIV-1 TAR RNA [2] is “yes”. Also, the Line broadening entry in the series on HIV-1 TAR RNA [7] is “little”.

Consider `Clc1ccc2c(c1)N(CCCn1ccnc1)c1ccccc1S2` [(11)], for which, in the series on HIV-1 TAR RNA [2], the “STD signals @ 0.4-0.6 mM drug” value was “yes”.

On to `CN(C)CCCN1c2ccccc2Sc2ccc(Cl)cc21` [chlorpromazine, 2-chloro-10-(dimethylaminopropyl)phenothiazine], for which, in series [15], the “prevention” value was “prevent completely”; the “binding to the TAR region” value is on record as “bind”.

Consider `NC[C@@H]1O[C@H](O[C@H]2[C@@H](O)[C@H](O[C@@H]3[C@@H](O)[C@H](N)C[C@H](N)[C@H]3O[C@H]3O[C@H](CO)[C@@H](O)[C@H](O)[C@H]3N)O[C@@H]2CO)[C@H](N)[C@@H](O)[C@@H]1O` [paromomycin], for which the Kd at A-site RNA [18] was 200 nM.

On to `CN1CCN(CCCN2c3ccccc3Sc3ccc(Cl)cc32)CC1` [prochlorperazine], for which, in series [15], the “prevention” value is recorded as “prevent completely”; the “binding to the TAR region” value is reported as “bind”. The “concentration at which significant cellular toxicity resulted” value in the series on HeLa cells is over 20 µM. Besides, in [19], the “inhibition of Tat transactivation” value is given as “up to 6 fold”.

On to `CCSc1ccc2c(c1)N(CCCN1CCN(C)CC1)c1ccccc1S2` [thiethylperazine], for which, in series [15], the “prevention” value was “did not”; the “binding to the TAR region” value is listed as “not found to have such binding activity”.

Consider `CN1CCN(CCCN2c3ccccc3Sc3ccc(C(F)(F)F)cc32)CC1` [trifluoperazine], for which the “inhibitory effect on the RNA of the ribosomal A-site” value in the series with Ribosomal A-site RNA [1] (method not specified) is “inhibitory effect”. For the same molecule, in series [15], the “prevention” value is on record as “did not”; the “binding to the TAR region” value is on record as “not found to have such binding activity”.
